Measurements reported in publication PMC3549521, “Carbocyclic Analogues of Inosine-5’-Monophosphate: Synthesis and Biological Activity” (Acta Naturae, 2012).

Experiments:
[1] = target: T1, human type II inosine-5′-monophosphate dehydrogenase (IMPDH II) (Homo sapiens, UniProt P12268); experiment: recombinant enzyme assay, NADH formation at […] nm, […] IMP and […] NAD; format: biochemical
T1 construct: gene IMPDH2; human recombinant IMPDH II

[2] = target: T1, human type II inosine-5′-monophosphate dehydrogenase (IMPDH II); experiment: recombinant enzyme assay, NADH formation at […] nm; positive control; format: biochemical

T1 sequence (P12268 2-514): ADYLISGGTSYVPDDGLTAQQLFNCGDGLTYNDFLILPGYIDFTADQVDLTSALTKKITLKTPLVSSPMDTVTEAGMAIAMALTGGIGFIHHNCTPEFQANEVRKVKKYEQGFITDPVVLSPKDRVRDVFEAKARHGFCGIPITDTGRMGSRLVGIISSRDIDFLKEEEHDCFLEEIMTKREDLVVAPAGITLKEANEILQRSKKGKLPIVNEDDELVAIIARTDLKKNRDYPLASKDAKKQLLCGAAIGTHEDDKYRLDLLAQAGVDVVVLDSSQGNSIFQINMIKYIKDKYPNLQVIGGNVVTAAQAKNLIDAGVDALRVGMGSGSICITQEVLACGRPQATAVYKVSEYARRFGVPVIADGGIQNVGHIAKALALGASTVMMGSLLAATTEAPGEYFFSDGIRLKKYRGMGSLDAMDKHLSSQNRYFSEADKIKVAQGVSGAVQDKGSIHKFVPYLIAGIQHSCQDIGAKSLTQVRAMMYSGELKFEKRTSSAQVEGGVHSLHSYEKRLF

SMILES	Ki [1] [µM]	IC50 [2] [µM]
O=c1[nH]cnc2c1ncn2C1CC(OCP(=O)(O)O)C(O)C1O (stereo not drawn) [compound 2, 9-(4’-phosphonomethoxy-2’,3’-dihydroxycyclopent-1’-yl)hypoxanthine]	975	–
NC(=O)c1ncn([C@@H]2O[C@H](COP(=O)(O)O)[C@@H](O)[C@H]2O)n1 [Ribavirin monophosphate]	–	2
O=c1[nH]cnc2c1ncn2C1C=CC(OCP(=O)(O)O)C1 (stereo not drawn) [compound 1, 9-(4’-Phosphonomethoxy-2’-cyclopenten-1’-yl)hypoxanthine]	474	–
